In EP2943187B1, “USE OF GLYCYL GLUTAMINE AGAINST DEPRESSION” (Uludag Universitesi Teknoloji Transfer Ofisi Ticaret ve …, priority 2013, dated 2014):
Peptide text beside a SMILES is read from it.

Key:
[1] = Storage stability; type: physicochemical
Method: After, it is diluted by saline; it can be stored in a refrigerator at +4°C between 24-48 hours. It can be stored in room temperature for 10-12 hours.

[2] = test system: serotonin output at the nucleus accumbency section of the brain; test: Brain micro-dialysis, serotonin output; type: in vivo, rats; conditions: single intracerebroventricular 100 nmol dose, 2 hours of monitoring, versus saline; p<0.001
Method: The source of the antidepressant effects of Gly-Gln, which is mentioned in the figure descriptions above, have been analyzed and shown in Figures 4 and 5. In Figures 4 and 5; the effect of Gly-Gln on the serotonin output at the nucleus accumbency section of the brain upon intracerebroventricular Gly-Gln injection can be seen. […] An increase in serotonin outputs can be observed in all time intervals throughout 2 hours of monitoring period following the Gly-Gln injection; however, no serotonin output could be observed from the rodents in the control group who had been administered saline injections by the same way. Serotonin, which is structurally a monoamine neurotransmitter, is a hormone, which makes people feel happy, energetic and lively. When, the subject matter hormone serotonin is deficient in people, they feel depressive, tired and boring. […] Furthermore, the word "Saline" indicated in Figure 4 and 5 means salty water. It is used for comparing with the tested medication by administering on the control group.

[3] = test system: GABA levels in the brain; test: GABA levels in the brain after administration (unpublished data); type: in vivo; conditions: Gly-Gln administration; unpublished data from applicant's laboratory
From the text: This innovation is related with the use of glycyl-glutamine in the treatment and/or prophylaxis of depression disorder and/or anxiety, which meets all above-mentioned requirements, eliminates all disadvantages and provides some advantages. The purpose of the current invention is to use Glycyl-Glutamine (Gly-Gln) in the treatment and/or prophylaxis of depression and/or anxiety via its effects in the brain other than its metabolic products' (glycine and glutamine) separate effects. […] Glutamine exerts antidepressant effects by increasing gamma-aminobutyric acid (GABA) in the brain however Gly-Gln generates antidepressant effects by increasing serotonin levels in the brain.

[4] = test system: rodents; test: Forced Swimming Test; type: in vivo, rats; conditions: intracerebroventricular, 100 nmol/10 µl, n=12
From the text: It has been proven as a result of the tests performed on animals that Glycyl-glutamine is therapeutic on depression and anxiety disorders. These aforementioned studies have been performed by means of "the Forced Swimming Test" method, which is the most applied animal model, used in antidepressant treatment surveys. The forced swimming test had been developed by Porsolt et al., (1978) and it is the most applied animal model in depression surveys especially the antidepressant treatment surveys. […] After the same animal is placed in the same tank twenty-four hours after the first time, it is observed that the time passes until inactivity reduces. Inactivity is expressed as losing behaviors of trying to escape in other words "behavioral helplessness". The forced swimming test is a similar response to learned helplessness. The efforts spent for an escape comes to an end for the animal, which understands it is exposed to a stress it will not be able to escape. Thus, it can be understood by that test model whether the antidepressant medications, which are administered before the second administration, show antidepressant effects or not. In practice, the post-treatment behaviors of the animal change for reducing behavioral helplessness. The time passed until inactivity is extended by means of acute or short-term antidepressant treatments and total time of inactivity is decreased. […] Because, it is an easy to apply practice, this model is used extensively (Cryan et al., 2002).
In Figure 1, the effect of intracerebroventricular Gly-Gln injection on the first term of inactivity. When, Gly-Gln has been administered centrally, it has extended the time passed until first inactivity compared to the control animals. While, the time passed until first inactivity of the rodents which have been centrally administered saline (10 µl) has been 14,9 ± 2,8 seconds (n=14), the time passed until first inactivity of the rodent which have been applied Gly-Gln (100 nmol/10 µl) by that same way has been increased to 28,1 ± 6,1 seconds (n=12), (p<0,05).
In Figure 2, the effect of intracerebroventricular Gly-Gln injection on the total term of inactivity. When, Gly-Gln has been administered centrally, it has reduced the total time time of inactivity compared to the control animals. While, the total inactivity time of the rodents which have been centrally administered saline (10 µl) has been 229.4 ± 8.9 seconds (n=14), the time passed until first inactivity of the rodent which have been applied Gly-Gln (100 nmol/10 µl) by the same way has been increased to 172.5 ± 12.8 seconds (n=12), (p<0,001).
In Figure 3, the effect of intracerebroventricular Gly-Gln injection on the escalation and swimming times. […]

storage time, diluted by saline ([1]; refrigerator at +4°C): 24 to 48 h
storage time, non-diluted form ([1]; refrigerator at -20°C): very long period of time
storage time, diluted by saline ([1]; room temperature): 10 to 12 h
SMILES: NCC(=O)N[C@@H](CCC(N)=O)C(=O)O [Gly-Gln, glycyl-glutamine] (H-Gly-Gln-OH)
serotonin output at the nucleus accumbency section of the brain [2]: extremely increased
GABA levels in the brain [3]: decrease
time passed until first inactivity ([4]; saline control 14,9 ± 2,8 seconds (n=14), p<0,05): 28,1 ± 6,1 seconds
swimming time ([4]; saline control 26,7 ± 2,9 seconds (n=14), p>0.05): 36,8 ± 4,3 seconds
escalation time ([4]; saline control 43,9 ± 7,0 seconds (n=14)): 90,8 ± 11,4 seconds
total inactivity time ([4]; saline control 229.4 ± 8.9 seconds (n=14), p<0,001): 172.5 ± 12.8 s
